In ChEMBL document CHEMBL3392977, “Synthesis and biological evaluation of adamantane-based aminophenols as a novel class of antiplasmodial agents” (Bioorg Med Chem Lett, 2015):
≈ marks a conversion by molar mass, not a printed value.

Tests used:
Plasmodium falciparum [1] = test: Antiplasmodial activity against Plasmodium falciparum NF54 by SYBR Green-based method; format: functional, organism-based
Plasmodium falciparum [2] = test: Antiplasmodial activity against multidrug-resistant Plasmodium falciparum K1 by SYBR Green-based method; format: functional, organism-based
[3] = Octanol-water partition coefficient, log D by shake-flask method; format: physicochemical
Liver microsome = test: Clearance in human liver microsomes at 1 uM after 2 to 30 mins by LC-MS/MS analysis; format: ADME
[4] = Protein binding in human plasma; format: ADME, cell-free
hERG (KCNH2) = hERG (KCNH2) (Homo sapiens, UniProt Q12809); test: Inhibition of human ERG at 11.1 uM
[5] = Solubility of the compound […]; format: physicochemical
[6] = Clearance in rat hepatocytes assessed per million cells at 1 uM after 5 to 120 mins by LC-MS/MS analysis; format: ADME, cell-based, Hepatocyte; conditions: read-out: CLH
THP-1 = test: Cytotoxicity against human THP1 cells; format: cell-based
[7] = Selectivity index, ratio of IC50 for human A549 cells to IC50 for Plasmodium falciparum; format: toxicity, cell-based; conditions: read-out: Ratio IC50

hERG (KCNH2), sequence (Q12809 whole entry): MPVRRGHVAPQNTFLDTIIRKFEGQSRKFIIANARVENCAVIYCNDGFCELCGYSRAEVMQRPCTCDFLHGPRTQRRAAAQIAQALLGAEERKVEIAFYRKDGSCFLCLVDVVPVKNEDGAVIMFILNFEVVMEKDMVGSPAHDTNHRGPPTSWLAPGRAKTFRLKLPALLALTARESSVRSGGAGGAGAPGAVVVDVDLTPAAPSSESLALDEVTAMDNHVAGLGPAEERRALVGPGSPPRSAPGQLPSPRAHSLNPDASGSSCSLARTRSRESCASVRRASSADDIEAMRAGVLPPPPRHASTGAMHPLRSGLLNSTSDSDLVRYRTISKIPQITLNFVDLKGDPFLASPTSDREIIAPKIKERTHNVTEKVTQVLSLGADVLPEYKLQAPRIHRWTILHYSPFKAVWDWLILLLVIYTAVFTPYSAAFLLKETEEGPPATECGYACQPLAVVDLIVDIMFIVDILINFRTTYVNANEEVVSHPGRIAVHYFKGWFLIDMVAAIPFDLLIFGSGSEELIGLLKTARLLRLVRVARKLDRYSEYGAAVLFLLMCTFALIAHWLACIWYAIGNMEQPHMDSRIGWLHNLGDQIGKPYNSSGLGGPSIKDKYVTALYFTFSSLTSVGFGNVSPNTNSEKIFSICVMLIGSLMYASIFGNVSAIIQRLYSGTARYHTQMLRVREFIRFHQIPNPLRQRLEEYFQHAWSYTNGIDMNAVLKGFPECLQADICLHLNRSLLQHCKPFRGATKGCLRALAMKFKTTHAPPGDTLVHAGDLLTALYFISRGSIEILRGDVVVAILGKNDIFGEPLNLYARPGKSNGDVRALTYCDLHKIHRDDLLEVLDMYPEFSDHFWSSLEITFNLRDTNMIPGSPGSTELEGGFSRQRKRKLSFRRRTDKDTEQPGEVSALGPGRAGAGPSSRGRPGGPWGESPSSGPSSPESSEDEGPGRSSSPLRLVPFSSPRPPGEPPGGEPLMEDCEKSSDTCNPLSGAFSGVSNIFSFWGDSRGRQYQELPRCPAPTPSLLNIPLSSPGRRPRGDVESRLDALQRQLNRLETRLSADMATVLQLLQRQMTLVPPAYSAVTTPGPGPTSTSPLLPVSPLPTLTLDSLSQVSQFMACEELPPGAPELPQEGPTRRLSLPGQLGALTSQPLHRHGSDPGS

Structure (SMILES): Cc1ccc(CNCC2CC2)c(O)c1
- IC50 (Plasmodium falciparum [1]): 1400 nM
- IC50 (Plasmodium falciparum [2]): 520 nM

Structure (SMILES): CCNCc1ccc(C)cc1O
- IC50 (Plasmodium falciparum [1]): > 2000 nM
- IC50 (Plasmodium falciparum [2]): > 2000 nM

Structure (SMILES): Cc1ccc(CNC2CCCCC2)c(O)c1
- IC50 (Plasmodium falciparum [1]): 730 nM
- IC50 (Plasmodium falciparum [2]): 130 nM

Structure (SMILES): Cc1ccc(CNC2C3CC4CC(C3)CC2C4)c(O)c1 (stereo not drawn)
- IC50 (Plasmodium falciparum [1]): 43 nM
- IC50 (Plasmodium falciparum [2]): 15 nM

Structure (SMILES): Cc1ccc(CNCC23CC4CC(CC(C4)C2)C3)c(O)c1
- IC50 (Plasmodium falciparum [1]): 6 nM
- IC50 (Plasmodium falciparum [2]): < 4 nM

Structure (SMILES): COc1ccc(CNCC23CC4CC(CC(C4)C2)C3)c(O)c1
- logD [3]: 2.7
- IC50 (Plasmodium falciparum [1]): 22 nM
- CLH (Liver microsome): 59 µL/min
- fraction unbound [4]: 0.044
- inhibition at 11.1 µM (hERG (KCNH2)): 46.2%
- solubility [5]: 446 µM (≈ 134 µg/mL)
- hepatocyte CLint at 1 µM [6]: 391 µL/min/1e6 cells
- IC50 (Plasmodium falciparum [2]): 6 nM

Structure (SMILES): Oc1cccc(F)c1CNCC12CC3CC(CC(C3)C1)C2
- IC50 (Plasmodium falciparum [1]): 28 nM
- IC50 (Plasmodium falciparum [2]): 8 nM

Structure (SMILES): COc1cccc(F)c1CNCC12CC3CC(CC(C3)C1)C2
- IC50 (Plasmodium falciparum [1]): > 2000 nM
- IC50 (Plasmodium falciparum [2]): 1100 nM

Structure (SMILES): c1ccc(CNCC23CC4CC(CC(C4)C2)C3)cc1
- IC50 (Plasmodium falciparum [1]): > 2000 nM
- IC50 (Plasmodium falciparum [2]): > 2000 nM

Structure (SMILES): CN(Cc1ccccc1O)CC12CC3CC(CC(C3)C1)C2
- IC50 (Plasmodium falciparum [1]): > 500 nM
- IC50 (Plasmodium falciparum [2]): 270 nM

Structure (SMILES): O=C(NCC12CC3CC(CC(C3)C1)C2)c1ccccc1O
- IC50 (Plasmodium falciparum [1]): > 500 nM
- IC50 (Plasmodium falciparum [2]): 410 nM

Structure (SMILES): Oc1ccc(Cl)cc1CNCC12CC3CC(CC(C3)C1)C2
- Activity (THP-1): Non-toxic
- logD [3]: 4
- IC50 (Plasmodium falciparum [1]): 5 nM
- selectivity ratio [7]: 5290
- CLH (Liver microsome): 80 µL/min
- fraction unbound [4]: 0.004
- inhibition at 11.1 µM (hERG (KCNH2)): 26.8%
- solubility [5]: 43 µM (≈ 13.2 µg/mL)
- hepatocyte CLint at 1 µM [6]: 208 µL/min/1e6 cells
- IC50 (Plasmodium falciparum [2]): < 4 nM

Structure (SMILES): Oc1ccc(Br)cc1CNCC12CC3CC(CC(C3)C1)C2
- Activity (THP-1): Non-toxic
- IC50 (Plasmodium falciparum [1]): 7 nM
- selectivity ratio [7]: 4780
- IC50 (Plasmodium falciparum [2]): < 4 nM

Structure (SMILES): Cc1ccc(O)c(CNCC23CC4CC(CC(C4)C2)C3)c1
- Activity (THP-1): Non-toxic
- logD [3]: 3.3
- IC50 (Plasmodium falciparum [1]): 43 nM
- selectivity ratio [7]: > 1160
- CLH (Liver microsome): 93 µL/min
- fraction unbound [4]: 0.031
- inhibition at 11.1 µM (hERG (KCNH2)): 28.3%
- solubility [5]: 97 µM (≈ 27.7 µg/mL)
- hepatocyte CLint at 1 µM [6]: 134 µL/min/1e6 cells
- IC50 (Plasmodium falciparum [2]): 15 nM

Structure (SMILES): Oc1ccc(C(F)(F)F)cc1CNCC12CC3CC(CC(C3)C1)C2
- Activity (THP-1): Non-toxic
- IC50 (Plasmodium falciparum [1]): 100 nM
- selectivity ratio [7]: > 500
- IC50 (Plasmodium falciparum [2]): 12 nM

Structure (SMILES): CC(NCC12CC3CC(CC(C3)C1)C2)c1cc(Br)ccc1O (stereo not drawn)
- Activity (THP-1): Non-toxic
- IC50 (Plasmodium falciparum [1]): 41 nM
- selectivity ratio [7]: > 1220
- IC50 (Plasmodium falciparum [2]): 12 nM

Structure (SMILES): Cc1ccc(O)c(CNCC23CC4CC(CC(C4)C2)C3)n1
- Activity (THP-1): Non-toxic
- logD [3]: 3
- IC50 (Plasmodium falciparum [1]): 32 nM
- selectivity ratio [7]: > 1560
- CLH (Liver microsome): 13 µL/min
- fraction unbound [4]: 0.122
- inhibition at 11.1 µM (hERG (KCNH2)): 7.9%
- solubility [5]: 237 µM (≈ 67.9 µg/mL)
- hepatocyte CLint at 1 µM [6]: 49 µL/min/1e6 cells
- IC50 (Plasmodium falciparum [2]): 7.7 nM

Structure (SMILES): Oc1cc(Cl)cc(Cl)c1CNCC12CC3CC(CC(C3)C1)C2
- Activity (THP-1): Non-toxic
- IC50 (Plasmodium falciparum [1]): 8 nM
- selectivity ratio [7]: > 6250
- IC50 (Plasmodium falciparum [2]): < 4 nM

Structure (SMILES): Oc1c(F)cc(Br)cc1CNCC12CC3CC(CC(C3)C1)C2
- Activity (THP-1): Non-toxic
- logD [3]: 3.7
- IC50 (Plasmodium falciparum [1]): 14 nM
- selectivity ratio [7]: > 3330
- CLH (Liver microsome): 92 µL/min
- fraction unbound [4]: 0.005
- inhibition at 11.1 µM (hERG (KCNH2)): 9.2%
- solubility [5]: 4 µM (≈ 1.47 µg/mL)
- hepatocyte CLint at 1 µM [6]: 162 µL/min/1e6 cells
- IC50 (Plasmodium falciparum [2]): < 4 nM

Structure (SMILES): Oc1ccccc1CNCC12CC3CC(CC(C3)C1)C2
- IC50 (Plasmodium falciparum [1]): 72 nM
- IC50 (Plasmodium falciparum [2]): 10 nM

Structure (SMILES): C[C@@H]1CC[C@H]2[C@@H](C)C(=O)O[C@@H]3O[C@@]4(C)CC[C@@H]1[C@]32OO4 [ARTEMISININ]
- IC50 (Plasmodium falciparum [1]): 7 nM

Structure (SMILES): O=C1C(O)=C([C@H]2CC[C@H](c3ccc(Cl)cc3)CC2)C(=O)c2ccccc21 [ATOVAQUONE]
- IC50 (Plasmodium falciparum [2]): 2.3 nM
